Measurements from US20220169637A1, “SOLID FORMS OF ENCEQUIDAR MESYLATE AND PROCESSES THEREOF” (DR. REDDY'S LABORATORIES LIMITED, priority 2019, published 2022).
Structures can show the parent of a compound that is named as a salt.

Experiment: Stress stability of crystalline Form EM1 (moisture content, XRPD pattern)
Assay type: physicochemical
Method: In an embodiment, the open sample of Form EM1 is stable at 25° C. for at least 24 hours. In an embodiment, the open sample of Form EM1 is stable under heating in air tray drier at 60° C. for at least 24 hours. In an embodiment, the open sample of Form EM1 is stable at 40° C. and 75% RH condition for at least 24 hours. In an embodiment, the open sample of Form EM1 is stable at 25° C. and 85% RH for at least 24 hours. In an embodiment, the open sample of Form EM1 is stable under UV exposure for at least 16 hours.

Moisture content (%) (Initial): 6.95%
XRPD pattern (Initial): Form EM1
Moisture content (%) (Open 25° C., 24 hours): 5.94%
XRPD pattern (Open 25° C., 24 hours): Form EM1
Moisture content (%) (Open 40° C./75% RH, 24 hours): 5.71%
XRPD pattern (Open 40° C./75% RH, 24 hours): Form EM1
Moisture content (%) (Open 60° C., 24 hours): 5.5%
XRPD pattern (Open 60° C., 24 hours): Form EM1
Moisture content (%) (UV exposed, 24 hours): 6.26%
XRPD pattern (UV exposed, 24 hours): Form EM1
Time stable (open sample at 25° C.): at least 24 hours
Time stable (open sample at 25° C. and 85% RH): at least 24 hours
Time stable (open sample at 40° C. and 75% RH): at least 24 hours
Time stable (open sample under UV exposure): at least 16 hours
Time stable (open sample, heating in air tray drier at 60° C.): at least 24 hours
Stability under tabulated stress conditions (stress conditions for 24 hours): found to be stable
Change in weight or moisture content and X-ray diffraction patterns (stressed samples, FIG. 5): No significant change
SMILES: COc1cc2c(cc1OC)CN(CCc1ccc(-n3nnc(-c4cc(OC)c(OC)cc4NC(=O)c4cc(=O)c5ccccc5o4)n3)cc1)CC2 [Form EM1, Encequidar mesylate]
